Structures are written as SMILES.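 In this assay, cells in 96-well plates receive the compound at five concentrations for 48 hours. Endpoints are linearly interpolated between the surrounding concentrations. The concentration for 50% growth inhibition is given as GI50.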 Activity calls are given as the source filed them. Rule as the data show it: active = GI50 up to about 1.1 µM and inactive = higher. Bounds are passed on as bounds.

What all share (test): growth of human tumour cells (NCI), 48 h
Test [1] deals with SF-295.
Test [2] has as its system HL-60.
For test [3], the system named is TK-10.
Test [4] deals with OVCAR-8.
Test [5] relates to RXF 393.
The subject of test [6] is RPMI-8226.
Test [7] relates to NCI-H522.
Test [8] relates to HCT-116.
Test [9] concerns OVCAR-3.
The test system of test [10] is SR.
Test [11] concerns SN12C.
For test [12], the system named is SW-620.
Test [13] concerns K562.
For test [14], the system named is Malme-3M.
For test [15], the system named is 786-0.
The test system of test [16] is HCT-15.

`COc1cc(/C=C2/C(=O)N(C(=O)OCc3ccccc3)C(Cc3cc(OC)c(OC)c(C)c3OC)C(=O)N2Cc2ccccc2)c(OC)c(C)c1OC` (stereo not given): the GI50 in test [1] was > 100 µM (inactive); in [2], 7.52 µM (inactive); in test [3], > 100 µM (inactive); in test [4], > 100 µM (inactive); in test [5], > 100 µM (inactive); in test [6], 20.9 µM (inactive). Also, the GI50 in test [7] is 11 µM (inactive); in [8] it was 29.3 µM (inactive); in test [9] it was 48.8 µM (inactive); in test [10] it was 41.1 µM (inactive); in [11], > 100 µM (inactive); in test [12], > 100 µM (inactive). The figures for the GI50 in test [13], in test [14] and in [15] were 39 µM (inactive), 76.4 µM (inactive) and > 100 µM (inactive), respectively.

Turning to `CS/C(=N/C(=O)c1ccccc1)SCCS/C(=N\C(=O)c1ccccc1)SC`, the GI50 in test [1] was > 100 µM (inactive); in test [2] it was > 100 µM (inactive); in test [3] it was > 100 µM (inactive); in [4], > 100 µM (inactive); in test [5] it was 73.6 µM (inactive); in test [6] it was > 100 µM (inactive). In addition, the GI50 is 69.2 µM (inactive) in test [7]; > 100 µM (inactive) in test [8]; 68.5 µM (inactive) in [9]; more than 100 µM in [16]; > 100 µM (inactive) in test [11]; > 100 µM (inactive) in [12]. The GI50 in test [13], in [14] and in test [15] was > 100 µM (inactive) each time.

For `C=CCNC(=O)ON1C(=O)CCC1=O`, the GI50 in test [1], in test [2], in test [3], in [4], in test [5] and in [6] was > 100 µM (inactive) throughout. Further, the GI50 is 31.8 µM (inactive) in test [7]; > 100 µM (inactive) in test [8]; > 100 µM (inactive) in test [9]; more than 100 µM in test [16]; > 100 µM (inactive) in [11]; > 100 µM (inactive) in [12]. The GI50 in [13], in test [14] and in test [15] was > 100 µM (inactive) throughout.

With `O=C1CCCCC1CN1CCCC1` (stereo not given), the GI50 in [1] is > 100 µM (inactive); in test [2], > 10 µM (inactive); in test [3], > 100 µM (inactive); in test [4], > 100 µM (inactive); in test [6] it was 84.3 µM (inactive); in [7], 0.178 µM (active). Further, the GI50 in [8] is > 100 µM (inactive); in test [9], > 100 µM (inactive); in test [10], 38.7 µM (inactive); in test [16] it was more than 100 µM; in [11], > 100 µM (inactive); in [12], > 100 µM (inactive). Moreover, the GI50 in test [13] is > 100 µM (inactive); in test [14], > 10 µM (inactive); in test [15], > 100 µM (inactive).

As for `CC(=O)O[C@H]1CCC2[C@@H]3CCC4C(=O)c5oncc5C[C@]4(C)C3CC[C@@]21C` (stereo not given in full), the GI50 in test [1] is 39.5 µM (inactive); in test [2], > 100 µM (inactive); in test [3], > 100 µM (inactive); in test [4] it was > 100 µM (inactive); in [5], > 100 µM (inactive); in test [6], > 100 µM (inactive). Also, the GI50 in test [8] was > 10 µM (inactive); in test [9], > 100 µM (inactive); in [16] it was more than 100 µM; in [11], > 100 µM (inactive); in [12], > 100 µM (inactive); in [13] it was > 100 µM (inactive). Besides, the GI50 in test [14] and in [15] was > 100 µM (inactive) throughout.

Regarding `OCCCc1cnco1`, the GI50 in test [1], in test [2], in test [3], in test [4], in [5] and in [6] was > 100 µM (inactive) each time. For the same molecule, the GI50 was > 100 µM (inactive) in test [8]; > 100 µM (inactive) in test [9]; > 100 µM (inactive) in [10]; more than 100 µM in [16]; > 100 µM (inactive) in test [11]; > 100 µM (inactive) in [12]. Besides, the GI50 in test [13], in test [14] and in test [15] was > 100 µM (inactive) throughout.

Regarding `C=C(CCCO)[C@@H]1CC[C@@](C)(O)[C@H]1C`, the GI50 in [1], in test [3], in [4], in [5], in test [6] and in test [7] was > 100 µM (inactive) throughout. Moreover, the GI50 in test [8] was > 100 µM (inactive); in [9], > 100 µM (inactive); in test [10], > 100 µM (inactive); in test [16] it was more than 100 µM; in test [11], > 100 µM (inactive); in [12], > 100 µM (inactive). For the same molecule, the GI50 in [13], in test [14] and in test [15] was > 100 µM (inactive) throughout.

As to `CC(=O)NC(CCCCNC(=O)OCc1ccccc1)C(=O)NCc1ccccc1` (stereo not given), the GI50 in [1], in test [3], in test [4], in [5], in test [6] and in [7] was > 100 µM (inactive) throughout. Further, the GI50 in test [8] is > 100 µM (inactive); in [9], > 100 µM (inactive); in test [16], more than 100 µM; in test [11] it was > 100 µM (inactive); in test [12] it was > 100 µM (inactive); in test [13] it was > 100 µM (inactive). Further, the GI50 in test [14] and in test [15] was > 100 µM (inactive) throughout.

In the case of `O=C(Cc1nc2ccccc2o1)C(=O)Nc1ccc(Cl)cc1Cl`, the GI50 in test [1], in [4], in [5], in test [6], in test [8] and in test [9] was > 100 µM (inactive) throughout. The GI50 in [10] was 13.1 µM (inactive); in test [16], more than 100 µM; in [11], > 100 µM (inactive); in test [12] it was > 100 µM (inactive); in [13], > 100 µM (inactive); in test [14] it was > 100 µM (inactive). Moreover, the GI50 in test [15] was > 100 µM (inactive).

In the case of `Nc1ccc(C(=O)NN2C(=O)C(Cl)C2c2ccccc2)cc1` (stereo not given), the GI50 in test [1], in [3], in [4], in test [6], in test [7] and in test [8] was > 100 µM (inactive) in each case. The GI50 is > 100 µM (inactive) in [9]; more than 100 µM in test [16]; > 100 µM (inactive) in test [11]; > 100 µM (inactive) in [12]; > 100 µM (inactive) in test [13]; > 100 µM (inactive) in test [14]. Besides, the GI50 in test [15] was > 100 µM (inactive).

Turning to `O=C(c1ccccc1)[C@@H]1C[C@H](Sc2ccccc2)c2cc(Cl)ccc2N1`, the GI50 in test [1] was 28.1 µM (inactive); in test [3] it was 25.2 µM (inactive); in [4] it was 23.4 µM (inactive); in test [5] it was 6.64 µM (inactive); in test [6], 23.7 µM (inactive); in [7] it was 22.1 µM (inactive). Further, the GI50 in test [8] was 23.1 µM (inactive); in test [9] it was 23 µM (inactive); in test [10], 14 µM (inactive); in [16], 25.4 µM; in [11] it was 15.7 µM (inactive); in [12] it was 22.5 µM (inactive). Moreover, the GI50 was 18.9 µM (inactive) in test [13], 32.4 µM (inactive) in [14] and 18.2 µM (inactive) in test [15].

Take `CCOC(=O)Nc1ccc(S(=O)(=O)I)cc1.CCOC(=O)Nc1ccc(S(=O)(=O)I)cc1.CNC(=O)N=O.NC(=O)OCCCl`: the GI50 was 78 µM (inactive) in test [1]; 45.3 µM (inactive) in test [2]; > 100 µM (inactive) in test [3]; > 100 µM (inactive) in test [4]; > 100 µM (inactive) in test [8]; > 100 µM (inactive) in test [10]. The GI50 was 70.8 µM in test [16]; > 100 µM (inactive) in test [11]; 61.8 µM (inactive) in test [12]; 40 µM (inactive) in [13]; 49.8 µM (inactive) in [14]; > 100 µM (inactive) in test [15].

Take `C/C(C=O)=C1\C(O)C[C@]1(C)C1CC(C)(C)CC1O` (stereo not given in full): the GI50 in test [1] is 41.4 µM (inactive); in test [2] it was 91 µM (inactive); in [3], > 100 µM (inactive); in [4] it was > 100 µM (inactive); in test [5] it was > 100 µM (inactive); in [6], 42.3 µM (inactive). Also, the GI50 is 32 µM (inactive) in [7]; 72.9 µM (inactive) in [8]; 28.8 µM (inactive) in [9]; 47 µM (inactive) in [10]; > 100 µM (inactive) in test [11]; > 100 µM (inactive) in test [12]. Also, the GI50 in test [13] is 54.6 µM (inactive); in test [14], > 100 µM (inactive); in test [15], > 100 µM (inactive).

As to `CN(C)c1ccc(N=O)c(O)c1.CN(C)c1ccc(N=O)c(O)c1.[SiH4]`, the GI50 was 14.3 µM (inactive) in test [1]; 4.41 µM (inactive) in [2]; 14.1 µM (inactive) in test [3]; 12.9 µM (inactive) in [4]; 31.6 µM (inactive) in test [6]; 1.53 µM (inactive) in test [7]. For the same molecule, the GI50 in test [8] was 6.5 µM (inactive); in test [9], 3.71 µM (inactive); in test [10] it was 11 µM (inactive); in test [11], 12 µM (inactive); in test [12], 10.2 µM (inactive); in test [13], 16.3 µM (inactive). In addition, the GI50 in test [14] is 14.1 µM (inactive); in [15] it was 20.8 µM (inactive).

Values taken from ChEMBL document CHEMBL1201862, “PubChem BioAssay data set” (2004).
